Broadly, the EC50 is the concentration giving half of the maximal effect. A high value points to weaker potency.

In one experiment the target is T1, OR1A1 (Homo sapiens, UniProt Q9P1Q5).
T1 sequence (Q9P1Q5 1-309): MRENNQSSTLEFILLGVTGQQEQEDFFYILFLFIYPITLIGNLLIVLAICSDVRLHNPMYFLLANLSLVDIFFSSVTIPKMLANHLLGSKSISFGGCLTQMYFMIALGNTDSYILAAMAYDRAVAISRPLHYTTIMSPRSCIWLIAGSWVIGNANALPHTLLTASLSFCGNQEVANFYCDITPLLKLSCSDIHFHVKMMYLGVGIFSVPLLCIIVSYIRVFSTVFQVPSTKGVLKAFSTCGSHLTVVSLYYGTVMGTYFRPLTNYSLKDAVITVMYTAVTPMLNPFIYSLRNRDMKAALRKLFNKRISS
The experiment is described as follows: cAMP accumulation. It is filed as biochemical. In general terms: cAMP levels reflect the balance of adenylyl cyclase and phosphodiesterase activity.

The next experiment deals with T2, OR5AN1 (Homo sapiens, UniProt Q8NGI8).
T2 sequence (Q8NGI8 1-311): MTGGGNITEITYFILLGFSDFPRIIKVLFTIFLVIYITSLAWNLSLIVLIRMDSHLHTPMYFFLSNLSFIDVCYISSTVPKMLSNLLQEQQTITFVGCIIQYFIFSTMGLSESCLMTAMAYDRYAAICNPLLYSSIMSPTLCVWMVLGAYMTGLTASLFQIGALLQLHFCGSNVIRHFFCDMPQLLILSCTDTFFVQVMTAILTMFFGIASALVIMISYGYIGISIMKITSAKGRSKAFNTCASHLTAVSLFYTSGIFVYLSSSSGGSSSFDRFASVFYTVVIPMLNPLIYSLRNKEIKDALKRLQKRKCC
Put plainly: cAMP accumulation. In kind it is biochemical.

Regarding `CCCCCC(=O)C(C)C(C)=O` (centres unmarked) [3-methyl-2,4-nonanedione], on OR1A1, the EC50 stood at 388 nM.
Turning to `C[C@@H]1CCCCCCCCCCCCC(=O)C1` [muscone], at OR5AN1, the EC50 was found to be 290 nM.
